This series is described as follows: Toxicity (LD50). To be noted: in vivo.

Consider 1 compound from patent US20190060337A1, “COMPOSITIONS COMPRISING BETA-GLUCOGALLIN AND THERAPEUTIC APPLICATIONS THEREOF IN CONTROLLED KINETICS OF CARBOHYDRATE BREAKDOWN AND MONOSACCHARIDE ABSORPTION” (priority 2017, published 2019).

Consider `O=C(O[C@@H]1O[C@H](CO)[C@@H](O)[C@H](O)[C@H]1O)c1cc(O)c(O)c(O)c1` [β-glucogallin, 1-O-galloyl-β-D-glucose], for which the LD50 result is reported as “approx. 2000 mg/kg bodyweight”.
